Test results taken from patent US11129822B2 (priority 2016, dated 2021).

Tests used:
Sprague Dawley rats [1] = conditions: rat, in vivo; cited from earlier work
Sprague Dawley rats [2] = conditions: rat, in vivo

## CN(C)C(=O)Oc1ccc[n+](C)c1 [pyridostigimine]
Sprague Dawley rats [1]
  pyridostigmine-induced signs of toxicity: ocular discharge, nasal discharge, hypoactivity, prostration, ataxia, diarrhea, hunched posture, thin appearance and death
Sprague Dawley rats [2]
  side effects in treated rats: no side effects
